{"source": "paper PMC2745115", "about": "(Bioorganic & medicinal chemistry letters, 2008)", "key": {"[1]": {"molecular_target": "κ opioid receptor (Homo sapiens, UniProt P41145)", "sequence (P41145 whole entry)": "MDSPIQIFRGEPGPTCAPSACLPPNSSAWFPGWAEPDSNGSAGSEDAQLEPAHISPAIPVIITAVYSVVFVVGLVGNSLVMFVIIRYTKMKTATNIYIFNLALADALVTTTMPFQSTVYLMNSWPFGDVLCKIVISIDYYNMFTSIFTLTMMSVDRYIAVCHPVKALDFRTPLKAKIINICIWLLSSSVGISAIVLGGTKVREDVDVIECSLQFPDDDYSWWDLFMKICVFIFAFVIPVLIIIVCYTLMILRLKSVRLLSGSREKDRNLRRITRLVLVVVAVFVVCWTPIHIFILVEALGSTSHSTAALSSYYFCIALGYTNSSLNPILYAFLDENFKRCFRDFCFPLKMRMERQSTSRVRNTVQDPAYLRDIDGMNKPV", "assay": "Inhibition of [3H]U69,593 binding to CHO cell membranes", "conditions": "relative to butorphanol"}, "[2]": {"molecular_target": "μ opioid receptor (Homo sapiens, UniProt P35372)", "sequence (P35372 whole entry, species assumed)": "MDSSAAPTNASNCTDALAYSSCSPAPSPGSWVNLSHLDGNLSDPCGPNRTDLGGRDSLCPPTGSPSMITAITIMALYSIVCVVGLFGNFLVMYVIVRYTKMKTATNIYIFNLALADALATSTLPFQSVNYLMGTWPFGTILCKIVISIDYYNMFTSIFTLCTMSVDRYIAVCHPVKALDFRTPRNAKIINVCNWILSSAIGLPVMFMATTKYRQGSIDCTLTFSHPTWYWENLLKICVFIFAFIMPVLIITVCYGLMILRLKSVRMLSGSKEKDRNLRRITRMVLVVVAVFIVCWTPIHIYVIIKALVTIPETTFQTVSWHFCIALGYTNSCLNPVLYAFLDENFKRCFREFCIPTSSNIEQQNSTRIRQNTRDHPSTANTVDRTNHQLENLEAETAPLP", "assay": "Inhibition of [3H]DAMGO binding to CHO cell membranes", "conditions": "relative to 4d"}, "[3]": {"assay": "Hydrolysis stability of esters by HPLC", "type": "physicochemical", "conditions": "pH 7.4, 25 mM phosphate buffer, 37 C, after 24 hours"}, "[4]": {"conditions": "humans; cited from earlier work"}, "[5]": {"conditions": "rhesus monkeys; cited from earlier work"}}, "data": [{"smiles": "Cl.O=C(COc1ccccc1)Oc1ccc2c(c1)[C@@]13CCCC[C@@]1(O)[C@@H](C2)N(CC1CCC1)CC3", "note": "[4d, (-)-N-cyclobutylmethylmorphinan-3-yl-14-ol phenoxyacetate]", "values": [{"measurement": "more potent binder at the κ receptor than butorphanol", "setting": "[1]", "value": "four-fold"}]}, {"smiles": "Cl.O[C@@]12CCCC[C@@]13CCN(CC1CCC1)[C@@H]2Cc1ccc(OCCc2ccccc2)cc13", "note": "[5d]", "values": [{"measurement": "less binding affinity at the μ opioid receptor than 4d", "setting": "[2]", "value": 164, "unit": "fold"}]}, {"smiles": "Cl.O=C(Cc1ccccc1)Oc1ccc2c(c1)[C@@]13CCCC[C@@]1(O)[C@@H](C2)N(CC1CCC1)CC3", "note": "[4b]", "values": [{"measurement": "hydrolysis of the esters", "setting": "[3]", "value": "No hydrolysis"}]}, {"smiles": "Oc1ccc2c(c1)[C@@]13CCCC[C@@]1(O)[C@@H](C2)N(CC1CCC1)CC3", "note": "[3b, butorphanol]", "values": [{"measurement": "analgesic potency, times that of meperdine", "setting": "[4]", "value": "30 – 40 times"}, {"measurement": "analgesic potency, times that of morphine", "setting": "[4]", "value": "4 – 8 times"}, {"measurement": "analgesic potency, times that of pentazocine", "setting": "[4]", "value": "16 – 24 times"}, {"measurement": "cocaine self-administration", "setting": "[5]", "value": "decrease cocaine self-administration"}, {"measurement": "food-maintained responding", "setting": "[5]", "value": "without producing a significant change"}]}, {"smiles": "Cc1ccc(C(C)C(=O)Oc2ccc3c(c2)[C@@]24CCCC[C@@]2(O)[C@@H](C3)N(CC2CCC2)CC4)cc1.Cl", "note": "(stereo partly drawn) [4c]", "values": [{"measurement": "hydrolysis of the esters", "setting": "[3]", "value": "No hydrolysis"}]}]}
